Measured values published in patent US4459290A, “C-23-Modified derivatives of OMT, pharmaceutical compositions and method of use” (priority 1982, dated 1984).
≈ marks a conversion by molar mass, not a printed value. Read-outs that look alike come from different tables or passages of the source.

Legend:
[1] = test system: Streptococcus pyogenes C203; assay: ED50 in mice experimentally infected with S. pyogenes C203 (Table VIII); format: in vivo
Procedure: The C-23 modified derivatives of OMT of this invention have shown in vivo antimicrobial activity against experimental infections. When two doses of test compound were administered to mice experimentally infected with a gram-positive bacterium, S. pyogenes C203, the activity observed was measured as an ED50 value [effective dose in mg/kg to protect 50% of the test animals: see Warren Wick, et al., J. Bacteriol. 81, 233-235 (1961)].

[2] = test system: Pasteurella hemolytica 23C; assay: MIC, broth-dilution microtiter test (Table VII); format: cell-based; details: Pasteurella, P. hemolytica 23C, read-out: MIC
How it was run: (§1)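 Conventional dilution MICs: agar for Enterobacter, microtiter broth for Staphylococcus and Pasteurella.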

[3] = test system: Mycoplasma hyorhinis; assay: MIC, broth-dilution microtiter test (Table VII); format: cell-based; details: M. hyorhinis; broth-dilution microtiter; read-out: MIC
Procedure: (§2) Especially noteworthy is the improved activity against gram-negative bacteria for several derivatives when compared to the activity of OMT. […] The MIC's in Tables V and VI were determined by standard agar-dilution assays. The MIC's in Table VII were obtained using a conventional broth-dilution microtiter test.

[4] = test system: Pasteurella hemolytica 41D; assay: MIC, broth-dilution microtiter test (Table VII); format: cell-based; details: Pasteurella, P. hemolytica 41D, read-out: MIC
How it was run: as §1

[5] = test system: Mycoplasma synoviae; assay: MIC, broth-dilution microtiter test (Table VII); format: cell-based; details: Mycoplasmopsis synoviae; M. synoviae; broth-dilution microtiter; read-out: MIC
Procedure: as §2

[6] = test system: Salmonella heidelberg X514; assay: MIC, standard agar-dilution assay (Table VI); format: cell-based; details: Salmonella enterica
Procedure: as §2

[7] = test system: Citrobacter freundii CF17; assay: MIC, standard agar-dilution assay (Table VI); format: cell-based; details: C. freundii CF17, agar dilution, read-out: MIC
Procedure: as §2

[8] = test system: Proteus rettgeri PR7; assay: MIC, standard agar-dilution assay (Table VI); format: cell-based; details: Providencia rettgeri; P. rettgeri PR7; agar dilution; read-out: MIC
Procedure: as §2

[9] = test system: Proteus rettgeri C24; assay: MIC, standard agar-dilution assay (Table VI); format: cell-based; details: Providencia rettgeri, P. rettgeri C24
Procedure: as §2

[10] = test system: Klebsiella pneumoniae X68; assay: MIC, standard agar-dilution assay (Table VI); format: cell-based; details: X68
Procedure: as §2

[11] = test system: Pseudomonas aeruginosa X528; assay: MIC, standard agar-dilution assay (Table VI); format: cell-based; details: P. aeruginosa X528, agar dilution, read-out: MIC
Procedure: as §2

[12] = test system: Pseudomonas aeruginosa X239; assay: MIC, standard agar-dilution assay (Table VI); format: cell-based
Procedure: as §2

[13] = test system: Serratia marcescens X99; assay: MIC, standard agar-dilution assay (Table VI); format: cell-based
Procedure: as §2

[14] = test system: Proteus morganii PR15; assay: MIC, standard agar-dilution assay (Table VI); format: cell-based; details: Morganella morganii
Procedure: as §2

[15] = test system: Enterobacter aerogenes EB17; assay: MIC, standard agar-dilution assay (Table VI); format: cell-based; details: Klebsiella aerogenes
Procedure: as §2

[16] = test system: Proteus inconstans PR33; assay: MIC, standard agar-dilution assay (Table VI); format: cell-based; details: Providencia alcalifaciens; P. inconstans PR33; agar dilution; read-out: MIC
Procedure: as §2

[17] = test system: Pseudomonas aeruginosa Ps18; assay: MIC, standard agar-dilution assay (Table VI); format: cell-based; details: P. aeruginosa Ps18, agar dilution, read-out: MIC
Procedure: as §2

[18] = test system: Enterobacter cloacae EB5; assay: MIC, standard agar-dilution assay (Table VI); format: cell-based; details: E. cloacae EB5, agar dilution, read-out: MIC
Procedure: as §2

[19] = test system: Salmonella typhi 1335; assay: MIC, standard agar-dilution assay (Table VI); format: cell-based; details: Salmonella enterica
Procedure: as §2

[20] = test system: Serratia marcescens SE3; assay: MIC, standard agar-dilution assay (Table VI); format: cell-based; details: S. marcescens SE3, agar dilution, read-out: MIC
Procedure: as §2

[21] = test system: Enterobacter aerogenes C32; assay: MIC, standard agar-dilution assay (Table VI); format: cell-based; details: Klebsiella aerogenes
Procedure: as §2

[22] = test system: Staphylococcus aureus V41; assay: MIC, standard agar-dilution assay (Table V); format: cell-based; details: Staphylococcus aureus, V41
Procedure: as §2

[23] = test system: Staphylococcus epidermidis EPI1; assay: MIC, standard agar-dilution assay (Table V); format: cell-based; details: Staphylococcus epidermidis; S. epidermidis EPI1; agar dilution; read-out: MIC
Procedure: as §2

[24] = test system: Staphylococcus aureus X1.1; assay: MIC, standard agar-dilution assay (Table V); format: cell-based; details: Staphylococcus aureus; S. aureus X1.1; agar dilution; read-out: MIC
Procedure: as §2

[25] = test system: Staphylococcus aureus X400; assay: MIC, standard agar-dilution assay (Table V); format: cell-based; details: Staphylococcus aureus, X400
Procedure: as §2

[26] = test system: Streptococcus Group 9960; assay: MIC, standard agar-dilution assay (Table V); format: cell-based; details: GROUP9960
Procedure: as §2

[27] = test system: Streptococcus Group D X66; assay: MIC, standard agar-dilution assay (Table V); format: cell-based
Procedure: as §2

[28] = test system: Staphylococcus epidermidis EPI2; assay: MIC, standard agar-dilution assay (Table V); format: cell-based; details: Staphylococcus epidermidis
Procedure: as §2

[29] = test system: Klebsiella pneumoniae X26; assay: MIC, standard agar-dilution assay (Table V); format: cell-based; details: Klebsiella pneumoniae; K. pneumoniae X26; agar dilution; read-out: MIC
Procedure: as §2

[30] = test system: Klebsiella pneumoniae KAE; assay: MIC, standard agar-dilution assay (Table V); format: cell-based; details: Klebsiella pneumoniae
How it was run: (§3)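 Growth inhibition in liquid medium, in a routine microtiter broth-dilution series, gave the MIC against staphylococci and pasteurellae; the gram-negative enteric strain was tested by conventional agar dilution instead.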

[31] = test system: Escherichia coli N10; assay: MIC, standard agar-dilution assay (Table V); format: cell-based; details: Escherichia coli; E. coli N10; agar dilution; read-out: MIC
How it was run: as §3

[32] = test system: Shigella sonnei N9; assay: MIC, standard agar-dilution assay (Table V); format: cell-based
How it was run: as §3

[33] = test system: Staphylococcus aureus S13E; assay: MIC, standard agar-dilution assay (Table V); format: cell-based; details: Staphylococcus aureus, S13E
Procedure: as §2

[34] = test system: Escherichia coli EC14; assay: MIC, standard agar-dilution assay (Table V); format: cell-based; details: Escherichia coli; E. coli EC14; agar dilution; read-out: MIC
How it was run: as §3

[35] = test system: Streptococcus pyogenes C203; assay: MIC, standard agar-dilution assay (Table V); format: cell-based; details: Streptococcus pyogenes
Procedure: (§4) The MIC's in Tables V and VI were determined by standard agar-dilution assays. The MIC's in Table VII were obtained using a conventional broth-dilution microtiter test.

[36] = test system: Haemophilus influenzae Holt; assay: MIC, standard agar-dilution assay (Table V); format: cell-based; details: Haemophilus influenzae
Procedure: as §4

[37] = test system: Haemophilus influenzae R252; assay: MIC, standard agar-dilution assay (Table V); format: cell-based; details: Haemophilus influenzae, R252
Procedure: as §4

[38] = C203, sc, mice, subcutaneous, doses given 1 and 4 hours postinfection, read-out: ED50, Subcutaneous

Row | Structure (SMILES) | ED50 ([1]; C203, po, read-out: ED50, Oral) [mg/kg] | ED50 [1, 38] [mg/kg] | MIC [2] [µg/mL] | MIC [3] [µg/mL] | MIC [4] [µg/mL] | MIC [5] [µg/mL] | MIC [7] [µg/mL] | MIC [8] [µg/mL] | MIC [9] [µg/mL] | MIC [10] [µg/mL] | MIC [11] [µg/mL] | MIC [16] [µg/mL] | MIC [17] [µg/mL] | MIC [18] [µg/mL] | MIC [19] [µg/mL] | MIC [20] [µg/mL] | MIC [22] [µg/mL] | MIC [23] [µg/mL] | MIC [24] [µg/mL] | MIC [25] [µg/mL] | further results
1 | CCC1OC(=O)CC(O)C(C)C(OC2OC(C)C(O)C(N(C)C)C2O)C(CC=O)CC(C)C(=O)C=CC(C)=CC1CF (stereo not shown) [Compound 15, 23-Deoxy-23-fluoro-OMT] | > 100 | 4.6 | 6.25 (≈ 10.4 µM) | 0.78 (≈ 1.3 µM) | 3.12 (≈ 5.2 µM) | 0.39 (≈ 0.65 µM) | > 128 | 32 (≈ 53.4 µM) | 32 (≈ 53.4 µM) | 64 (≈ 107 µM) | 16 (≈ 26.7 µM) | > 128 | 32 (≈ 53.4 µM) | > 128 | 64 (≈ 107 µM) | > 128 | 0.5 (≈ 0.834 µM) | 0.25 (≈ 0.417 µM) | 0.25 (≈ 0.417 µM) | 0.5 (≈ 0.834 µM) | MIC ([6]; S. heidelberg X514, agar dilution, read-out: MIC): 64 µg/mL (≈ 107 µM); MIC ([12]; P. aeruginosa X239, agar dilution, read-out: MIC): 64 µg/mL (≈ 107 µM); MIC ([13]; S. marcescens X99, agar dilution, read-out: MIC): 64 µg/mL (≈ 107 µM); MIC ([14]; P. morganii PR15, agar dilution, read-out: MIC): 64 µg/mL (≈ 107 µM); MIC ([15]; E. aerogenes EB17, agar dilution, read-out: MIC): 64 µg/mL (≈ 107 µM); MIC ([21]; E. aerogenes C32, agar dilution, read-out: MIC): 64 µg/mL (≈ 107 µM); MIC [26]: 0.5 µg/mL (≈ 0.834 µM); MIC [27]: 0.5 µg/mL (≈ 0.834 µM); MIC ([28]; S. epidermidis EPI2, agar dilution, read-out: MIC): 0.5 µg/mL (≈ 0.834 µM); MIC [29]: 2 µg/mL (≈ 3.33 µM); MIC [30]: 64 µg/mL (≈ 107 µM); MIC [31]: 32 µg/mL (≈ 53.4 µM); MIC [32]: 32 µg/mL (≈ 53.4 µM); MIC [33]: 0.5 µg/mL (≈ 0.834 µM); MIC [34]: 32 µg/mL (≈ 53.4 µM); MIC ([35]; S. pyogenes C203, agar dilution, read-out: MIC): 0.125 µg/mL (≈ 0.208 µM); MIC ([36]; H. influenzae Holt, ampicillin-sensitive strain, agar dilution, read-out: MIC): 1 µg/mL (≈ 1.67 µM); MIC [37]: 0.5 µg/mL (≈ 0.834 µM)
2 | CCC1OC(=O)CC(O)C(C)C(OC2OC(C)C(O)C(N(C)C)C2O)C(CC=O)CC(C)C(=O)C=CC(C)=CC1CN=[N+]=[N-] (stereo not shown) [Compound 8, 23-Deoxy-23-azido-OMT] | > 100 | 6.3 | 6.25 (≈ 10 µM) | 3.12 (≈ 5.01 µM) | 6.25 (≈ 10 µM) | 0.39 (≈ 0.626 µM) | > 128 | 32 (≈ 51.4 µM) | 32 (≈ 51.4 µM) | 64 (≈ 103 µM) | 16 (≈ 25.7 µM) | > 128 | 32 (≈ 51.4 µM) | > 128 | 64 (≈ 103 µM) | > 128 | 0.25 (≈ 0.401 µM) | 0.125 (≈ 0.201 µM) | 0.125 (≈ 0.201 µM) | 0.25 (≈ 0.401 µM) | MIC ([6]; X514): 64 µg/mL (≈ 103 µM); MIC ([12]; X239): 64 µg/mL (≈ 103 µM); MIC ([13]; X99): 64 µg/mL (≈ 103 µM); MIC ([14]; PR15): 64 µg/mL (≈ 103 µM); MIC ([15]; EB17): 64 µg/mL (≈ 103 µM); MIC ([21]; C32): 64 µg/mL (≈ 103 µM); MIC ([26]; Streptococcus Group 9960, agar dilution, read-out: MIC): 0.5 µg/mL (≈ 0.803 µM); MIC [27]: 0.25 µg/mL (≈ 0.401 µM); MIC ([28]; EPI2): 0.25 µg/mL (≈ 0.401 µM); MIC [29]: 4 µg/mL (≈ 6.42 µM); MIC ([30]; K. pneumoniae KAE, agar dilution, read-out: MIC): > 128 µg/mL; MIC [31]: 32 µg/mL (≈ 51.4 µM); MIC [32]: 32 µg/mL (≈ 51.4 µM); MIC [33]: 0.25 µg/mL (≈ 0.401 µM); MIC [34]: 32 µg/mL (≈ 51.4 µM); MIC ([35]; C203): 0.125 µg/mL (≈ 0.201 µM); MIC [36]: 1 µg/mL (≈ 1.61 µM); MIC [37]: 1 µg/mL (≈ 1.61 µM)
